The source of these data is article PMC6474802 (Journal of natural products, 2018).

Usually IC50 stands for the midpoint of a concentration-inhibition curve. Low readings indicate higher potency, high ones lower potency.

Among the targets are TRPM8 (Homo sapiens, UniProt Q7Z2W7); TRPV4 (Homo sapiens, UniProt Q9HBA0); TRPV1 (Homo sapiens, UniProt Q8NER1).
What all share (format): cell-based

Sequence of TRPM8 (Q7Z2W7 whole entry): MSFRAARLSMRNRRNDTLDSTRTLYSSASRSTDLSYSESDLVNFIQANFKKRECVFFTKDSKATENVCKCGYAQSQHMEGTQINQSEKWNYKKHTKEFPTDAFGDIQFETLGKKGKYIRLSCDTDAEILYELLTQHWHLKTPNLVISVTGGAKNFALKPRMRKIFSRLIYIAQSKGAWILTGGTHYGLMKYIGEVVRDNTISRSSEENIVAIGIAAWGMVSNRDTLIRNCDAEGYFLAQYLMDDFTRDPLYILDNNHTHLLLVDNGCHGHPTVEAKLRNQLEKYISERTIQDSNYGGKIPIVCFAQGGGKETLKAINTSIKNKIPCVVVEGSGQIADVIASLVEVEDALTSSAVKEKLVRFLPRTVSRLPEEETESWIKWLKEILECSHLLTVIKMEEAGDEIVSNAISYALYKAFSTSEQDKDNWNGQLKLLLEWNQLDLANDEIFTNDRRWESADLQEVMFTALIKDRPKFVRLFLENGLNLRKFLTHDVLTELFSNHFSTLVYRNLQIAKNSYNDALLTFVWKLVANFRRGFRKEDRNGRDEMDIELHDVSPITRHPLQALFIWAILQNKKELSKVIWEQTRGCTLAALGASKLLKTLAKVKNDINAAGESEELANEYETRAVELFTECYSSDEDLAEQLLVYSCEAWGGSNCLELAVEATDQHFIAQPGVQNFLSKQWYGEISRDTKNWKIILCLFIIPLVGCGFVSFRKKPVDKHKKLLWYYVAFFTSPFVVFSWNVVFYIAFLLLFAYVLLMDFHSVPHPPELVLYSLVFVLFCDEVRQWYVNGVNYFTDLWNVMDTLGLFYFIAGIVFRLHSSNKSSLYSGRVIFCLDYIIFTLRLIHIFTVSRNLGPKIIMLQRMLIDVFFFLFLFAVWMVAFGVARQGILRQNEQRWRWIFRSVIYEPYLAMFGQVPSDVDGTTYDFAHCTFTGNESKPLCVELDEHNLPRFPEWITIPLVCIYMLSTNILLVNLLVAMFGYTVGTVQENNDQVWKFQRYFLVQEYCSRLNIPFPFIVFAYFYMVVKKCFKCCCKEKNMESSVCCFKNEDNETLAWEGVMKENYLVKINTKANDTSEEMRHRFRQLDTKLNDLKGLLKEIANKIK
Sequence of TRPV1 (Q8NER1 whole entry): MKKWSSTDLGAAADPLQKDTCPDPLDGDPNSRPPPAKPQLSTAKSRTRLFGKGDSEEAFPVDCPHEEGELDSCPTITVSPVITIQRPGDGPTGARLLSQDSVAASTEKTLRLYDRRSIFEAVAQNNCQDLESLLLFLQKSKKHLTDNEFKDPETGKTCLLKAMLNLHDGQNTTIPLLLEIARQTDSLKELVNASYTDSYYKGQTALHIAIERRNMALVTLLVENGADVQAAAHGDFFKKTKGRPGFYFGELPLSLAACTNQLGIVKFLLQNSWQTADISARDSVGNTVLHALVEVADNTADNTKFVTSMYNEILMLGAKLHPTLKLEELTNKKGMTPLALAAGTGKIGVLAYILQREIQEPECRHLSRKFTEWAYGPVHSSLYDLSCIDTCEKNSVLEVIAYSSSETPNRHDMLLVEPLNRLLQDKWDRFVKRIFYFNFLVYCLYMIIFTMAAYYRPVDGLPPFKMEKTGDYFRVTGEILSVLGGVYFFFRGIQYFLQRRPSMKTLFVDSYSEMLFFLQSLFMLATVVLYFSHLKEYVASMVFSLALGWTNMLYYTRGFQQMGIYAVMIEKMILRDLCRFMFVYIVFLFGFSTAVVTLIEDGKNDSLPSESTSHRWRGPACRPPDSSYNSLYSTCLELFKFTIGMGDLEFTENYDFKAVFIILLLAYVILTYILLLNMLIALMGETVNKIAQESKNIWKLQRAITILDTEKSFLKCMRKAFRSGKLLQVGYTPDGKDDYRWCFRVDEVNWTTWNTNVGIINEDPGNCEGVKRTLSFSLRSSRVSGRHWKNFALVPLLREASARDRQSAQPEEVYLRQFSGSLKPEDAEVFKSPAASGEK
Sequence of TRPV4 (Q9HBA0 whole entry): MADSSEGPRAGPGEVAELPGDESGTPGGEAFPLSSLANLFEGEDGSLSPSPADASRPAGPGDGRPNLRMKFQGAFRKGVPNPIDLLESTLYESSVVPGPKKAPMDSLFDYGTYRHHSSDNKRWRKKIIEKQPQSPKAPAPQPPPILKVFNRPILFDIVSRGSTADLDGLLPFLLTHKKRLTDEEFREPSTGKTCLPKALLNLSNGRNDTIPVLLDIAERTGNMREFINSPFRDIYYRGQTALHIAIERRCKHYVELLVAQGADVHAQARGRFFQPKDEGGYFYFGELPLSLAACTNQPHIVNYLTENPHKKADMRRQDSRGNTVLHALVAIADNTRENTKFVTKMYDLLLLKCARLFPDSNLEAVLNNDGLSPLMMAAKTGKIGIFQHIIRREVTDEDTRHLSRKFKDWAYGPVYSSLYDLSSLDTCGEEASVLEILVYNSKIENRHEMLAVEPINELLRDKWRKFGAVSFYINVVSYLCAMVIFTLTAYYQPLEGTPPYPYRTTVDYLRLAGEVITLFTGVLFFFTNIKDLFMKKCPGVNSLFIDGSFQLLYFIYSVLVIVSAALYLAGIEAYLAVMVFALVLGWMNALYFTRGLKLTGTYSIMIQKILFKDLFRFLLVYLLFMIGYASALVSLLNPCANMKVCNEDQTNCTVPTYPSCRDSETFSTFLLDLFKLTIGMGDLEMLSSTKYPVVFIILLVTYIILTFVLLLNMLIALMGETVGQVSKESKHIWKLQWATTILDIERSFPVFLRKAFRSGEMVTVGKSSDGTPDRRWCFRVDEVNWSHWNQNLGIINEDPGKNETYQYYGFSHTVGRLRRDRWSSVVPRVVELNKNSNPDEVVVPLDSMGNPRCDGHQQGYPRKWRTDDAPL

In the case of Onydecalin B [compound 2], half-maximal inhibition at TRPM8 (IC50) required 18.5 µM.

Regarding Onydecalin D [compound 4], the IC50 on TRPM8 was 61.6 µM.

For the substance onydecalin A [compound 1], the IC50 against TRPV4 is approximately 45.9 µM; at TRPV1 it was approximately 81.6 µM.
